Experimental findings from patent publication US20140194477A1, “KINASE PROTEIN BINDING INHIBITORS” (Roswell Park Cancer Institute, priority 2011, published 2014) are described below.

This data set relates to CD-1 mice. Nature of the data set: 28-day multiple-dose toxicologic study, IP, CD-1 mice. The class given is in vivo, mouse. The protocol:
A 28-day, multiple-dose toxicologic study of the chemical 1,2,4,5-Benzenetetramine tetrahydrochloride was performed in CD-1 mice.
• 1,2,4,5-benzenetetramine tetrahydrochloride. The test article was prepared in PBS (physiologic buffered saline). The test article was prepared by the sponsor and delivered to the study director prior to the study. The test article was stored in the freezer (0° C.), protected from light.
• PBS (physiologic buffered saline), • Test System: • The CD-1 [Hsd:ICR(CD-l)] albino mouse was used. The CD-1 mouse is conventionally used in 28 day toxicity tests to provide information on which human hazards can be judged, and is one of the choices of species preferred by regulatory agencies. Mice were obtained from Harlan (Frederick, MD). • Mice were acclimated for 2 days prior to testing. 12 male and 12 female mice, nulliparous and non-pregnant, were used. Normal weight gain, appearance and behavior were factors used to select healthy mice for testing. Only naive animals were used. Mice were 7 weeks old (males) and 9 weeks old (females), weighed 21-26 grams (males) and 17-23 grams (females), and were in good health at the start of the study. Mice were 11 weeks old (males) and 13 weeks old (females), weighed 20-32 grams (males) and 19-26 grams (females) at the conclusion of the study. • Mice were randomly assigned to 4 experimental groups (high-dose, medium-dose, low-dose, and controls) consisting of 3 males and 3 females. Mice were identified via cage cards, tail markings, and ear punch. Mouse identification is summarized in Table 1. • Mice were fed autoclaved Harlan-Teklad sterilizable 7012 mouse/rat diet ad libitum. The feed is routinely analyzed by the manufacturer for nutritional components and environmental contaminants. Tap water acidified to a pH of 2.5-3.5 was provided in autoclaved water bottles ad libitum. Municipal water supply is analyzed by the Bureau Veritas Consumer Product Services of Buffalo, N.Y. on an annual basis. There are no known contaminants in the feed or water provided to the test animals that would be expected to interfere with this study. • Mice were group-housed, 3 to a cage, in autoclaved polycarbonate/polysulfone microisolator cages with autoclaved contact bedding (bed ′o cobs, Anderson's Industrial Products Group). • Environmental conditions in the animal housing room were maintained at an ambient temperature of 70±3°, relative humidity of 30-70%, and a 12:12 light-dark cycle. Animal housing rooms were ventilated with 100% fresh, HEPA filtered air with 10-15 air changes per hour.
• A 28-day multiple-dose toxicology study was performed.
The test article (1,2,4,5-benzenetetramine tetrahydrochloride) was prepared in PBS (the control article) and administered intraperiotoneally (IP) as 20 doses once daily on days 0-4, 7-11, 14-18, and 21-25 in the morning. The compound was diluted so as not to exceed a volume of 0.1 mL.
The test article (1,2,4,5-benzenetetramine tetrahydrochloride) was stored in the freezer (0° C.) and thawed to room temperature prior to injection. Mice were randomly allocated into 4 groups (control, low-dose, medium-dose, and high-dose) consisting of 3 males and 3 females, Dosages were calculated on a “per mouse” basis, not on a mg/kg basis. Mice in the low-dose group received the equivalent of a 15 mg/kg dose for a 20 g mouse (0.3 mg). Mice in the medium-dose group received the equivalent of a 30 mg/kg dose for a 20 g mouse (0.6 mg). Mice in the high-dose group received the equivalent of a 45 mg/kg dose for a 20 g mouse (0.9 mg). Mice in the control group received 0.1 mL of PBS (phosphate-buffered saline). Groups received the following doses, as outlined in table 1: […]

Setting [1] is: IP, 28-day study, high-dose group.

In the case of `Cl.Cl.Cl.Cl.Nc1cc(N)c(N)cc1N` [Y15, 1,2,4,5-benzenetetraamine tetrahydrochloride], the “toxicity (summary statement)” value (30 mg/kg by ip administration, duration 28 days) is reported as “no toxicity”. Also, the pain following injection entry (IP, 20 daily doses over 28 days, 15, 30, 45 mg/kg equivalent) is “pain following injection in all dose groups”. Where the note is “IP, 28-day study”, the clinical chemistry changes result is “not associated with any changes in clinical chemistry that were statistically and clinically significant”. Also, the “gross and histopathologic findings” value (IP, 28-day study, all dose groups) is “gross and histopathologic peritonitis in mice in all dose groups”. For the same compound, the mean body weights entry (IP, 28-day study, high dose group (45 mg/kg equivalent)) is “statistically significant lowered mean body weights”. In addition, under setting [1], the hematologic changes result was “Some statistically and clinically significant hematologic changes”; the mortality result is “unexpected mortality in the high-dose group”. Moreover, the clinical signs result (IP, 28-day study, medium (30 mg/kg) and high (45 mg/kg) dose groups) is “clinical signs consistent with general malaise and peritonitis”. The weight loss result (IP, 28-day study, medium- and high-dose groups) is “weight loss in the medium- and high-dose groups”.
